Reference: patent US4234724A, “Cephalosporin analogues and processes for the preparation thereof” (Fujisawa Pharmaceutical Company, Limited, priority 1977, dated 1980)
Values after ≈ are worked out from the molar mass of the structure shown.

Columns and labels:
Experiment in all cases: In vitro antibacterial activity, two-fold agar-plate dilution method
Format in all cases: cell-based
E. coli 31 = conditions: Escherichia coli, HI-agar, 37° C., 20 hours, 10^6 viable cells per ml
Protocol: (§1) In vitro antibacterial activity was determined by the two-fold agar-plate dilution method as described below.
(§2) One loopful of an overnight culture of each test strain in Trypticase-soy broth (10^6 viable cells per ml.) was streaked on heart infusion agar (HI-agar) containing graded concentrations of antibiotics, and the minimum inhibitory concentration (MIC) was expressed in terms of μg/ml after incubation at 37° C. for 20 hours.

Pr. mirabilis 18 = conditions: Proteus mirabilis, HI-agar, 37° C., 20 hours, 10^6 viable cells per ml
Protocol: as §1, §2

Kl. pneumoniae 20 = conditions: Klebsiella pneumoniae, HI-agar, 37° C., 20 hours, 10^6 viable cells per ml
Protocol: as §1, §2

Pr. vulgaris 2 = conditions: Proteus vulgaris, HI-agar, 37° C., 20 hours, 10^6 viable cells per ml
Protocol: as §1, §2

`CON=C(C(=O)NC1C(=O)N2C(C(=O)O)=CCOC12)c1csc(N)n1` (stereo not drawn) [(1), 7β-[2-Methoxyimino-2-(2-aminothiazol-4-yl)acetamid]-1-oxadethia-3-cephem-4-carboxylic acid (syn isomer)] was tested, and the MIC (E. coli 31) was 0.05 µg/mL (≈ 0.136 µM), the MIC (Pr. mirabilis 18) was 0.05 µg/mL (≈ 0.136 µM) and the MIC (Kl. pneumoniae 20) was 0.1 µg/mL (≈ 0.272 µM). It also gave an MIC (Pr. vulgaris 2) of 0.2 µg/mL (≈ 0.544 µM).

Work on `CCON=C(C(=O)NC1C(=O)N2C(C(=O)O)=CCOC12)c1csc(N)n1` (stereo not drawn) [(2), 7β-[2-Ethoxyimino-2-(2-aminothiazol-4-yl)acetamido]-1-oxadethia-3-cephem-4-carboxylic acid (syn isomer)] yielded an MIC (E. coli 31) of 0.05 µg/mL (≈ 0.131 µM), an MIC (Pr. mirabilis 18) of 0.05 µg/mL (≈ 0.131 µM) and an MIC (Kl. pneumoniae 20) of 0.025 µg/mL (≈ 0.0656 µM). It also gave an MIC (Pr. vulgaris 2) of 0.05 µg/mL (≈ 0.131 µM).

`CC(C)ON=C(C(=O)NC1C(=O)N2C(C(=O)O)=CCOC12)c1csc(N)n1` (stereo not drawn) [(3), 7β-[2-Isopropoxyimino-2-(2-aminothiazol-4-yl)acetamido]-1-oxadethia-3-cephem-4-carboxylic acid (syn isomer)] was tested, and the MIC (E. coli 31) was 0.2 µg/mL (≈ 0.506 µM), the MIC (Pr. mirabilis 18) was 0.1 µg/mL (≈ 0.253 µM) and the MIC (Kl. pneumoniae 20) was 0.05 µg/mL (≈ 0.126 µM). For the same compound, the MIC (Pr. vulgaris 2) was 0.1 µg/mL (≈ 0.253 µM).

For `CON=C(C(=O)NC1C(=O)N2C(C(=O)O)=CCOC12)c1nsc(N)n1` (stereo not drawn) [(4), 7β-[2-Methoxyimino-2-(5-amino-1,2,4-thiadiazol-3-yl)acetamido]-1-oxadethia-3-cephem-4-carboxylic acid (syn isomer)], the MIC (E. coli 31) was 0.025 µg/mL (≈ 0.0679 µM), the MIC (Pr. mirabilis 18) was 0.1 µg/mL (≈ 0.271 µM) and the MIC (Kl. pneumoniae 20) was 0.05 µg/mL (≈ 0.136 µM). For the same compound, the MIC (Pr. vulgaris 2) was 0.1 µg/mL (≈ 0.271 µM).

Compound `CON=C(C(=O)NC1C(=O)N2C(C(=O)O)=CCOC12)c1nccc(N)n1` (stereo not drawn) [(5), 7β-[2-Methoxyimino-2-(4-aminopyrimidin-2-yl)acetamido]-1-oxadethia-3-cephem-4-carboxylic acid (syn isomer)] has an MIC (E. coli 31) of 0.025 µg/mL (≈ 0.069 µM), an MIC (Pr. mirabilis 18) of 0.05 µg/mL (≈ 0.138 µM) and an MIC (Kl. pneumoniae 20) of 0.05 µg/mL (≈ 0.138 µM). It also gave an MIC (Pr. vulgaris 2) of 0.1 µg/mL (≈ 0.276 µM).
